The nature of the series: photoluminescence quantum yield (fraction); solvent given as SMILES.

Molecules are shown by their SMILES.

For the molecule `CC(=O)c1c2c(cc3cc(N(C)C)ccc13)CCC2`, the photoluminescence quantum yield is, setting by setting: (in C1CCCCC1) 0.08; (in C1CCOC1) 0.34; (in C1COCCO1) 0.38; (in CC#N) 0.18; (in CCO) 0.03; (in CS(C)=O) 0.37. For the same molecule, the photoluminescence quantum yield is, setting by setting: (in Cc1ccccc1) 0.25; (in ClC(Cl)Cl) 0.41; (in ClCCl) 0.82.
As to `c1ccc(-c2nc(-c3ccc(-c4ccc(-c5nc(-c6ccccc6)c(-c6ccccc6)o5)cc4)cc3)oc2-c2ccccc2)cc1`, the photoluminescence quantum yield (in C1COCCO1) was found to be 0.74.
Under “in c1ccc2c(c1)c1ccccc1n2-c1ccc(-c2ccc(-n3c4ccccc4c4ccccc43)cc2)cc1”, `O=C(/C=C(\O)c1ccc(N2c3ccccc3Oc3ccccc32)cc1)c1ccc(N2c3ccccc3Oc3ccccc32)cc1` yielded a photoluminescence quantum yield of 0.68.
Take `N#Cc1c(C#N)c2cc(Br)ccc2c2ccc(Br)cc12`: the photoluminescence quantum yield (in ClC(Cl)Cl) was 0.01.
In the case of `Cc1cc(C)c(N(c2ccccc2)c2ccc(S(=O)(=O)c3ccc(S(=O)(=O)c4ccc(N(c5ccccc5)c5c(C)cc(C)cc5C)cc4)cc3)cc2)c(C)c1`, the photoluminescence quantum yield (in Cc1ccccc1) is 0.79.
Turning to `CCc1c(C)c2n(c1C)[B-](F)(F)[N+]1=C(c3ccc[nH]3)c3ccccc3C1=C2`, the photoluminescence quantum yield by setting is: (in C1CCOC1) 0.71; (in CC#N) 0.74; (in CCCCCC) 0.82; (in CO) 0.65; (in Cc1ccccc1) 0.72; (in ClCCl) 0.66.
On to `O=[N+]([O-])c1ccc(/C=C/c2c[nH]c3ccccc23)cc1`, for which the photoluminescence quantum yield (in CC#N) is 0.009, the photoluminescence quantum yield (in CCCCCCC) was 0.051, the photoluminescence quantum yield (in CO) was determined as 0.003 and the photoluminescence quantum yield (in O) was found to be 0.024.
Molecule `CC(C)(C)c1ccc2c(c1)c1cc(C(C)(C)C)ccc1n2-c1ccc(N(c2ccc(-c3ccc(-c4ccc(-c5ccc(-c6ccc(N(c7ccc(-n8c9ccc(C(C)(C)C)cc9c9cc(C(C)(C)C)ccc98)cc7)c7ccc(-n8c9ccc(C(C)(C)C)cc9c9cc(C(C)(C)C)ccc98)cc7)cc6)s5)c5nsnc45)s3)cc2)c2ccc(-n3c4ccc(C(C)(C)C)cc4c4cc(C(C)(C)C)ccc43)cc2)cc1` registered a photoluminescence quantum yield (in ClCCl) of 0.08.
For the setting “in O”, `CC[N+]1(CC)CN2C(=N1)C(C(=O)O)=Cc1cc(SC)ccc12` returned a photoluminescence quantum yield of 0.308.
In the case of `CCOc1ccc2c(-c3nc(-c4cccc(Br)c4)no3)cc(=O)oc2c1`, the photoluminescence quantum yield is, setting by setting: (in CCO) 0.52; (in ClC(Cl)Cl) 0.2.
In turn, `Cc1cccc(-c2cnc3ccc4ccccc4n23)c1` had a photoluminescence quantum yield (in ClCCl) of 0.55.
Still for that read-out and setting: under `c1ccc(-c2nc(-c3cccc4ccccc34)n3ccccc23)cc1` stands 0.125.
`O=C(O)CCNc1cccc2ccccc12` had a photoluminescence quantum yield (in CCO) of 0.54.
The molecule `CCCC1(CCC)c2cc(-c3cccc(Cc4ccc(/C=C/c5ccccc5)cc4)c3)ccc2-c2ccc(-c3cccc(Cc4ccc(/C=C/c5ccccc5)cc4)c3)cc21` registered a photoluminescence quantum yield (in C1CCCCC1) of 0.08.
Regarding `CC(C)Oc1ccc(C#Cc2cc3ccccc3oc2=O)cc1`, the photoluminescence quantum yield (in CC#N) was 0.43.
On to `O=c1c2cc(C#Cc3ccc(Cl)cc3)ccc2nc2ccc(C#Cc3ccc(Cl)cc3)cn12`, for which the photoluminescence quantum yield (in ClCCl) worked out at 0.33.
`c1cc(N2CCCC2)ccn1`: the photoluminescence quantum yield reads like this: (in CC1CCCCC1) 0.09; (in ClC(Cl)Cl) 0.03.
Consider `CC[n+]1nc2cc3c4c(c2c2ccccc21)CCCN4CCC3`, for which the photoluminescence quantum yield (in O) came out at 0.25.
With `CC(C)(C)c1cc2c(c(C(C)(C)C)c1)O[B-](F)(F)[n+]1c-2nc(-c2ccccc2)c2cc(Cl)ccc21`, the photoluminescence quantum yield (in Cc1ccccc1) was found to be 0.001.
For `CC1(C)c2ccccc2-n2c(-c3ccc(N4c5ccccc5Oc5ccccc54)cc3)nc3cccc1c32`, the photoluminescence quantum yield came to 0.31 (in Cc1ccccc1) and 0.71 (in O=P(c1ccccc1)(c1ccccc1)c1ccccc1Oc1ccccc1P(=O)(c1ccccc1)c1ccccc1).
For `COC(=O)c1ccc(C#Cc2ccc(N(C)C)cc2)cc1`, the photoluminescence quantum yield reads like this: (in C1CCCCC1) 0.351; (in C1CCOC1) 0.15; (in C1COCCO1) 0.303; (in CC1CCCO1) 0.248; (in CC#N) 0.134; (in CC(C)=O) 0.428. Also, the photoluminescence quantum yield reads like this: (in CC(C)CC(C)(C)C) 0.31; (in CC(C)O) 0.013; (in CCCCCCCCCCCCCCCC) 0.314; (in CCCCCCCCCCCCCCCCCl) 0.339; (in CCOC(C)=O) 0.14; (in CCOCC) 0.216. Also, the photoluminescence quantum yield reads like this: (in CN(C)C=O) 0.065; (in CO) 0.001; (in CS(C)=O) 0.053; (in Cc1ccccc1) 0.324.
As for `CCOC(=O)c1ccc(/C=C/C2=[N+]3C(=C(c4ccccc4)c4ccc(/C=C/c5ccc(C(=O)OCC)o5)n4[B-]3(F)F)C=C2)o1`, the photoluminescence quantum yield (in ClC(Cl)Cl) was 0.29.
On to `CCOC(=O)c1c2c3c(ccc(Br)c3c3cc4ccccc4cc13)N(C)C2=O`, for which the photoluminescence quantum yield (in CC#N) stood at 0.45.
With `COc1ccc(-c2nc3ccccc3nc2/C=C/N2CCCC2)s1`, the photoluminescence quantum yield came to 0.072 (in C1CCCCC1); 0.155 (in C1CCOC1); 0.21 (in CC#N); 0.209 (in CC(C)=O); 0.031 (in CCO); 0.009 (in CO). Moreover, the photoluminescence quantum yield reads like this: (in CS(C)=O) 0.184; (in Cc1ccccc1) 0.095; (in ClCCl) 0.19.
Molecule `CCCCn1c2ccc(C#N)cc2c2cc(C#N)cc(-c3ccc(N(c4ccccc4)c4ccccc4)cc3)c21` came in with a photoluminescence quantum yield (in ClCCl) of 0.65.
Under “in C1CCOC1”, `CCCCCCOc1cc(C=C2c3ccccc3-c3ccccc32)c(OCCCCCC)cc1C=C1c2ccccc2C=Cc2ccccc21` registered a photoluminescence quantum yield of 0.0013.
In turn, `C[Si]1(C)O[Si](C)(C)c2cc3cc4c(cc3cc21)C(=O)c1cc2cc3c(cc2cc1C4=O)[Si](C)(C)O[Si]3(C)C` registered a photoluminescence quantum yield (in ClC(Cl)Cl) of 0.01.
Where the note is “in CCO”, `CCOC(=O)c1cc(C(=O)OCC)c2ccc(N(C)C)cc2n1` registered a photoluminescence quantum yield of 0.41.
Consider `O=c1oc2ccccc2cc1-c1nc2ccccc2o1`, for which the photoluminescence quantum yield came out at 0.77 (in C1CCOC1); 0.84 (in C1COCCO1); 0.94 (in CC1CCCCC1); 0.72 (in CC#N); 0.76 (in CC(C)=O); 0.8 (in CC(C)CO). Besides, the photoluminescence quantum yield reads like this: (in CC(C)O) 0.76; (in CCOC(C)=O) 0.86; (in CN(C)C=O) 0.72; (in CO) 0.67; (in CS(C)=O) 0.77; (in Cc1ccccc1) 0.83. In addition, the photoluminescence quantum yield reads like this: (in ClC(Cl)(Cl)Cl) 0.92; (in ClC(Cl)Cl) 0.87; (in OCCO) 0.68.
Regarding `c1csc(-c2ccc(-c3ccc(-c4cccs4)s3)s2)c1`, the photoluminescence quantum yield worked out at 0.27 (in CCC(C)C) and 0.16 (in ClCCl).
For `O=C1NC(=O)/C(=C\c2ccccc2O)S1`, the photoluminescence quantum yield by setting is: (in C1CCCCC1) 0.02; (in C1COCCO1) 0.031; (in CC#N) 0.025; (in CN(C)C=O) 0.064; (in CO) 0.02; (in O) 0.011. Also, the photoluminescence quantum yield reads like this: (in OCC(O)CO) 0.632; (in OCCO) 0.115.

The values above are taken from the Deep4Chem optical property database.
